Results from patent US9409952B2, “Peptide-compound cyclization method” (Chugai Seiyaku Kabushiki Kaisha, priority 2011, dated 2016).
Where two headings read alike, the source gives them in different places. Starred links: 1 amine or outer side, 2 acyl side, 3 side chain; linkers in the order of their positions; H or OH if unused. Positions of bridges follow the written chain, without caps; N, C: chain ends. Non-standard residues stand in square brackets, D forms with d. Residues, ends and D or L forms follow the SMILES beside them. ξ: configuration not given here. *: point of attachment. Phe(4-(CH2)5CO) = O=C([C@H](Cc1ccc(CCCCCC(=O)[*:3])cc1)N[*:1])[*:2]; Phe(3-(CH2)4CO) = O=C([C@H](Cc1cccc(CCCCC(=O)[*:3])c1)N[*:1])[*:2]; NMeF = CN[C@@H](Cc1ccccc1)C(=O)O; NMeI = CC[C@H](C)[C@H](NC)C(=O)O; NMeβAla = CN(CCC(=O)[*:2])[*:1]; AllylGly = C=CC[C@H](N)C(=O)O; NMeL = CN[C@@H](CC(C)C)C(=O)O; NMeV = CN[C@H](C(=O)O)C(C)C; Pip = O=C(O)[C@@H]1CCCCN1; NMeA = CN[C@@H](C)C(=O)O; Piperidide = C1CCN(*)CC1; ξF = NC(Cc1ccccc1)C(=O)O; Aze = O=C(O)[C@@H]1CCN1; Sar = CNCC(=O)O; tBu = CC(C)(C)*

Assay: Metabolic stability in human hepatic microsome
Format: in vitro ADME
Conditions: microsomes
[1] = pH 7.4, human hepatic microsome, NADPH(+), read-out: CL NADPH(+)

Structure (SMILES) | microsomal CLint at 1 uM [1] [µL/min/mg] | microsomal CLint at 1 uM (human, pH 7.4, CL NADPH(+)) [µL/min/mg]
CC[C@H](C)[C@H]1C(=O)NCC(=O)N2CCCC[C@H]2C(=O)N[C@@H]([C@@H](C)O)C(=O)N2CCC[C@H]2C(=O)N[C@@H](Cc2ccccc2)C(=O)N[C@H](C(=O)N2CCCCC2)CC(=O)N(C)[C@@H](C)C(=O)N[C@@H](Cc2ccccc2)C(=O)N(C)[C@@H](CC(C)C)C(=O)N[C@@H](CC(C)C)C(=O)N1C [DP-557] ([NMeA]F[NMeL]L[NMeI]G[Pip]TPFD-Piperidide; lactam N-11) | 96 | –
CC(C)C[C@@H]1NC(=O)[C@H](Cc2ccccc2)N(C)C(=O)[C@H](C)N(C)C(=O)C[C@@H](C(=O)N2CCCCC2)NC(=O)[C@H]([C@@H](C)O)NC(=O)[C@H](CC(C)C)N(C)C(=O)[C@H](Cc2ccccc2)NC(=O)[C@H](CC(C)C)N(C)C(=O)[C@H](CC(C)C)N(C)C1=O [DP-494] ([NMeA][NMeF]L[NMeL][NMeL]F[NMeL]TD-Piperidide; lactam N-9) | 330 | –
CC[C@H](C)[C@@H]1NC(=O)[C@H](Cc2ccccc2)N(C)C(=O)[C@H](Cc2ccccc2)NC(=O)[C@H](CC(C)C)N(C)C(=O)[C@H](C(C)C)NC(=O)[C@H](CC(C)C)NC(=O)CCCCCc2ccc(cc2)C[C@@H](C(=O)N2CCCCC2)NC(=O)[C@H]([C@@H](C)O)NC(=O)[C@H](CC(C)C)NC(=O)[C@H](C)N(C)C1=O [DP-892] (LV[NMeL]F[NMeF]I[NMeA]LT[Phe(4-(CH2)5CO)]-Piperidide; lactam N-10) | 57 | –
CC(C)C[C@H]1C(=O)N(C)[C@@H](CC(C)C)C(=O)N[C@@H](C)C(=O)N(C)[C@@H](CC(C)C)C(=O)N(C)[C@@H](Cc2ccccc2)C(=O)N(C)[C@@H](Cc2ccccc2)C(=O)N[C@@H]([C@@H](C)O)C(=O)N(C)[C@@H](C)C(=O)N(C)[C@@H](CC(C)C)C(=O)N[C@H](C(=O)N2CCCCC2)Cc2cccc(c2)CCCCC(=O)N1C [DP-859] ([NMeL][NMeL]A[NMeL][NMeF][NMeF]T[NMeA][NMeL][Phe(3-(CH2)4CO)]-Piperidide; lactam N-10) | 87 | –
C=CC[C@@H]1NC(=O)[C@H](CC(C)C)N(C)C(=O)[C@H](CC(C)C)N(C)C(=O)CNC(=O)[C@H](Cc2ccccc2)N(C)C(=O)[C@H]([C@@H](C)O)NC(=O)[C@H](CC(C)C)N(C)C(=O)[C@H](Cc2ccccc2)NC(=O)[C@H](C)NC(=O)C[C@@H](C(=O)N(C)[C@@H](Cc2ccccc2)C(=O)N[C@@H](C)C(=O)N2CCCCC2)NC1=O [DP-611] (AF[NMeL]T[NMeF]G[NMeL][NMeL][AllylGly]D[NMeF]A-Piperidide; lactam N-10) | 20 | –
CC[C@H](C)[C@H]1C(=O)NCC(=O)N(C)[C@@H](CC(C)C)C(=O)N[C@@H]([C@@H](C)O)C(=O)N2CCC[C@H]2C(=O)N[C@@H](Cc2ccccc2)C(=O)N[C@H](C(=O)N2CCCCC2)CC(=O)N2CC[C@H]2C(=O)N[C@@H](Cc2ccccc2)C(=O)N(C)[C@@H](CC(C)C)C(=O)N[C@@H](CC(C)C)C(=O)N1C [DP-550] ([Aze]F[NMeL]L[NMeI]G[NMeL]TPFD-Piperidide; lactam N-11) | 108 | –
CC[C@H](C)[C@H]1C(=O)N[C@@H](C)C(=O)N(C)[C@@H](Cc2ccccc2)C(=O)N[C@@H]([C@@H](C)O)C(=O)N(C)[C@@H](CC(C)C)C(=O)N[C@@H](Cc2ccccc2)C(=O)N(C)[C@@H](C(C)C)C(=O)N[C@H](C(=O)N2CCCCC2)CC(=O)N[C@@H](C)C(=O)NCC(=O)N(C)[C@@H](CC(C)C)C(=O)N1C [DP-31] (AG[NMeL][NMeI]A[NMeF]T[NMeL]F[NMeV]D-Piperidide; lactam N-11) | – | 57
CC[C@H](C)[C@@H]1NC(=O)[C@H](C)NC(=O)C[C@@H](C(=O)N2CCCCC2)NC(=O)[C@H](Cc2ccccc2)NC(=O)[C@H](C)NC(=O)[C@H]([C@@H](C)O)NC(=O)[C@H](Cc2ccccc2)NC(=O)[C@H](CC(C)C)N(C)C(=O)[C@H](CC(C)C)NC(=O)[C@H](Cc2ccccc2)NC(=O)[C@H](CC(C)C)NC1=O [DP-320] (AILFL[NMeL]FTAFD-Piperidide; lactam N-11) | 36 | –
C=C1CCC(=O)N[C@@H](CC(C)C)C(=O)N2CCC[C@H]2C(=O)N(C)[C@@H](C(C)C)C(=O)N[C@@H](Cc2ccccc2)C(=O)N(C)[C@@H](Cc2ccccc2)C(=O)N(C)[C@@H](CC(C)C)C(=O)N[C@@H](C)C(=O)N(C)[C@@H]([C@@H](C)CC)C(=O)N[C@H](C(=O)N2CCCCC2)Cc2cccc1c2 [DP-870] | 474 | –
CC[C@H](C)[C@H]1C(=O)N[C@@H](Cc2ccccc2)C(=O)N(C)[C@@H](Cc2ccccc2)C(=O)N[C@@H]([C@@H](C)O)C(=O)N2CCC[C@H]2C(=O)N[C@@H](CC(C)C)C(=O)N[C@H](C(=O)N2CCCCC2)Cc2ccc(cc2)CCCCCC(=O)N[C@@H](C(C)C)C(=O)N(C)CC(=O)N[C@@H](CC(C)C)C(=O)N(C)[C@@H](CC(C)C)C(=O)N[C@@H](C)C(=O)N1C [DP-895] (V[Sar]L[NMeL]A[NMeI]F[NMeF]TPL[Phe(4-(CH2)5CO)]-Piperidide; lactam N-12) | 54 | –
CC[C@H](C)[C@@H]1NC(=O)[C@H](Cc2ccccc2)N(C)C(=O)[C@H](Cc2ccccc2)NC(=O)[C@H](CC(C)C)N(C)C(=O)[C@H](C(C)C)NC(=O)[C@H](CC(C)C)NC(=O)[C@H](C)N(C)C(=O)CNC(=O)CCCCCc2ccc(cc2)C[C@@H](C(=O)N2CCCCC2)NC(=O)[C@H]([C@@H](C)O)NC(=O)[C@H](CC(C)C)NC(=O)[C@H](C)N(C)C1=O [DP-891] (G[NMeA]LV[NMeL]F[NMeF]I[NMeA]LT[Phe(4-(CH2)5CO)]-Piperidide; lactam N-12) | 100 | –
CC[C@H](C)[C@@H]1NC(=O)[C@H](C(C)C)N(C)C(=O)[C@H](C)N(C)C(=O)C[C@@H](C(=O)N2CCCCC2)NC(=O)[C@H](CC(C)C)NC(=O)[C@H](Cc2ccccc2)N(C)C(=O)[C@H](CC(C)C)N(C)C(=O)[C@H](CC(C)C)NC(=O)[C@H]([C@@H](C)O)NC(=O)[C@H](Cc2ccccc2)NC1=O [DP-488] ([NMeA][NMeV]IFTL[NMeL][NMeF]LD-Piperidide; lactam N-10) | 261 | –
C=C1CCC(=O)N(C)[C@@H](Cc2ccccc2)C(=O)N(C)[C@@H](CC(C)C)C(=O)N[C@@H]([C@@H](C)O)C(=O)N(C)[C@@H](C)C(=O)NCC(=O)N(C)[C@@H](CC(C)C)C(=O)N(C)[C@@H](CC(C)C)C(=O)N(C)[C@@H](CC(C)C)C(=O)N[C@H](C(=O)N2CCCCC2)Cc2ccc1cc2 [DP-845] | 248 | –
CC[C@H](C)[C@@H]1NC(=O)[C@H](C(C)C)N(C)C(=O)[C@H](Cc2ccccc2)N(C)C(=O)[C@H](Cc2ccccc2)NC(=O)[C@H](CC(C)C)N(C)C(=O)[C@H](C)N(C)C(=O)[C@H]([C@@H](C)O)NC(=O)[C@H](C)N(C)C(=O)C[C@@H](C(=O)N2CCCCC2)NC(=O)[C@H](CC(C)C)N(C)C1=O [DP-333] ([NMeA]T[NMeA][NMeL]F[NMeF][NMeV]I[NMeL]D-Piperidide; lactam N-10) | 157 | –
CC[C@H](C)[C@H](NC(=O)[C@H](Cc1ccccc1)N(C)C(=O)[C@H](Cc1ccccc1)N(C)C(=O)[C@@H]1CC(=O)N(C)CCC(=O)N(C)[C@@H](CC(C)C)C(=O)N(C)[C@@H](Cc2ccccc2)C(=O)N[C@@H](CC(C)C)C(=O)N(C)[C@@H](CC(C)C)C(=O)N(C)[C@@H](CC(C)C)C(=O)N[C@@H]([C@@H](C)O)C(=O)N(C)[C@@H](C)C(=O)N1)C(=O)N1CCCCC1 [DP-960] ([NMeβAla][NMeL][NMeF]L[NMeL][NMeL]T[NMeA]D[NMeF][NMeF]I-Piperidide; lactam N-9) | 36 | –
CC(C)C[C@@H]1NC(=O)[C@H](CC(C)C)N(C)C(=O)[C@H](CC(C)C)N(C)C(=O)[C@H](CCC(N)=O)NC(=O)[C@H](Cc2ccccc2)N(C)C(=O)[C@H]([C@@H](C)O)NC(=O)[C@H](CC(C)C)N(C)C(=O)[C@H](Cc2ccccc2)NC(=O)[C@H](C)NC(=O)C[C@@H](C(=O)N(C)[C@@H](Cc2ccccc2)C(=O)N[C@@H](C)C(=O)N2CCCCC2)NC1=O [DP-602] (AF[NMeL]T[NMeF]Q[NMeL][NMeL]LD[NMeF]A-Piperidide; lactam N-10) | 26 | –
CC[C@H](C)[C@H](NC(=O)[C@H](CC(C)C)N(C)C(=O)[C@@H]1CC(=O)N[C@@H](C)C(=O)N[C@@H](Cc2ccccc2)C(=O)N2CCC[C@H]2C(=O)N[C@@H](CC(C)C)C(=O)N[C@@H]([C@@H](C)O)C(=O)N[C@@H](CC(C)C)C(=O)N[C@@H](Cc2ccccc2)C(=O)N(C)[C@@H](C(C)C)C(=O)N[C@@H](C)C(=O)N1)C(=O)N1CCCCC1 [DP-43] (AFPLTLF[NMeV]AD[NMeL]I-Piperidide; lactam N-10) | – | 44
CC[C@H](C)[C@H](NC(=O)[C@@H]1CCCN1C(=O)[C@@H](NC(=O)[C@@H]1CC(=O)N[C@@H](C)C(=O)N[C@@H](CC(C)C)C(=O)N(C)[C@@H](CC(C)C)C(=O)N[C@@H](C)C(=O)N[C@@H](CC(C)C)C(=O)N(C)[C@@H](Cc2ccccc2)C(=O)N[C@@H](Cc2ccccc2)C(=O)N1)[C@@H](C)O)C(=O)N1CCCCC1 [DP-45] (AL[NMeL]AL[NMeF]FDTPI-Piperidide; lactam N-8) | – | 129
CC[C@H](C)[C@H]1C(=O)N[C@@H]([C@@H](C)O)C(=O)N(C)CC(=O)N(C)[C@@H](CC(C)C)C(=O)N[C@H](C(=O)N2CCCCC2)Cc2cccc(c2)CCCCC(=O)N[C@@H](CC(C)C)C(=O)N(C)[C@@H](CC(C)C)C(=O)N(C)[C@@H](Cc2ccccc2)C(=O)N[C@@H](C)C(=O)N(C)[C@@H](Cc2ccccc2)C(=O)N1C [DP-857] (L[NMeL][NMeF]A[NMeF][NMeI]T[Sar][NMeL][Phe(3-(CH2)4CO)]-Piperidide; lactam N-10) | 284 | –
CC[C@H](C)[C@@H]1NC(=O)[C@H](C)N(C)C(=O)[C@H](Cc2ccccc2)NC(=O)[C@H](Cc2ccccc2)NC(=O)[C@H](CC(C)C)NC(=O)[C@H](C(C)C)N(C)C(=O)[C@H](CC(C)C)NC(=O)[C@H](C)NC(=O)[C@H](C)NC(=O)C[C@@H](C(=O)N2CCCCC2)NC(=O)CNC(=O)[C@H]([C@@H](C)O)NC1=O [DP-84] (AAL[NMeV]LFF[NMeA]ITGD-Piperidide; lactam N-12) | 21 | –
CC[C@H](C)[C@@H]1NC(=O)[C@@H]2CCCN2C(=O)CNC(=O)[C@H](COC(C)(C)C)NC(=O)[C@H](CC(C)C)N(C)C(=O)C(Cc2ccccc2)NC(=O)CN(C)C(=O)C[C@@H](C(=O)N2CCCCC2)NC(=O)[C@H](CC(C)C)N(C)C(=O)[C@H](Cc2ccccc2)NC(=O)[C@H]([C@@H](C)O)NC(=O)[C@H](C)N(C)C1=O (stereo partly drawn) [DP-517] ([Sar][ξF][NMeL]S(tBu)GPI[NMeA]TF[NMeL]D-Piperidide; lactam N-12) | – | 31
